For 16 compounds, activity coefficient results are on record in the NIST ThermoML archive (doi:10.1016/j.jct.2016.01.017).

The data set can be described thus: activity coefficient (dimensionless); of the first substance listed, at infinite dilution; xn = mol fraction of the nth substance listed. As to conditions: 100 kPa, Liquid, Chromatography, x1 = 0.

± gives the expanded uncertainty stated by the source.

Consider `CCO` [ethanol] + CCCC[n+]1ccc(C#N)cc1.O=S(=O)([N-]S(=O)(=O)C(F)(F)F)C(F)(F)F, for which the activity coefficient was 1.86 ± 0.16 (308.15 K); 1.74 ± 0.15 (318.15 K); 1.64 ± 0.14 (328.15 K); 1.55 ± 0.13 (338.15 K); 1.47 ± 0.12 (348.15 K); 1.39 ± 0.12 (358.15 K). Moreover, the activity coefficient (368.15 K) stood at 1.33 ± 0.11.

As to `O` [water] + CCCC[n+]1ccc(C#N)cc1.O=S(=O)([N-]S(=O)(=O)C(F)(F)F)C(F)(F)F, the activity coefficient came out at 3.31 ± 0.29 (308.15 K); 3.01 ± 0.26 (318.15 K); 2.74 ± 0.24 (328.15 K); 2.52 ± 0.22 (338.15 K); 2.33 ± 0.2 (348.15 K); 2.16 ± 0.19 (358.15 K). Also, for the setting “368.15 K”, the activity coefficient came out at 2 ± 0.17.

Turning to `CCC(C)CC` [3-methylpentane] + CCCC[n+]1ccc(C#N)cc1.O=S(=O)([N-]S(=O)(=O)C(F)(F)F)C(F)(F)F, the activity coefficient was found to be 30.7 ± 2.7 (308.15 K); 28.4 ± 2.5 (318.15 K); 26.4 ± 2.3 (328.15 K); 24.7 ± 2.1 (338.15 K); 23.1 ± 2 (348.15 K); 21.7 ± 1.9 (358.15 K). For the same compound, the activity coefficient (368.15 K) was 20.6 ± 1.8.

In the case of `CCOC(C)=O` [ethyl acetate] + CCCC[n+]1ccc(C#N)cc1.O=S(=O)([N-]S(=O)(=O)C(F)(F)F)C(F)(F)F, the activity coefficient amounted to 0.839 ± 0.07 (308.15 K); 0.89 ± 0.074 (318.15 K); 0.941 ± 0.077 (328.15 K); 0.995 ± 0.082 (338.15 K); 1.05 ± 0.09 (348.15 K); 1.1 ± 0.09 (358.15 K). Also, the activity coefficient (368.15 K) came out at 1.15 ± 0.1.

Take `CCC(C)(C)C` [2,2-dimethylbutane] + CCCC[n+]1ccc(C#N)cc1.O=S(=O)([N-]S(=O)(=O)C(F)(F)F)C(F)(F)F: the activity coefficient was found to be 34.9 ± 3 (308.15 K); 31.3 ± 2.7 (318.15 K); 28.2 ± 2.4 (328.15 K); 25.6 ± 2.2 (338.15 K); 23.4 ± 2 (348.15 K); 21.4 ± 1.9 (358.15 K). Besides, the activity coefficient (368.15 K) was found to be 19.7 ± 1.7.

Consider `COC(C)=O` [methyl ethanoate] + CCCC[n+]1ccc(C#N)cc1.O=S(=O)([N-]S(=O)(=O)C(F)(F)F)C(F)(F)F, for which the activity coefficient is, setting by setting: (308.15 K) 0.607 ± 0.053; (318.15 K) 0.646 ± 0.056; (328.15 K) 0.685 ± 0.059; (338.15 K) 0.724 ± 0.061; (348.15 K) 0.762 ± 0.064; (358.15 K) 0.8 ± 0.067. Moreover, the activity coefficient (368.15 K) turned out to be 0.839 ± 0.07.

`C1CCCC1` [cyclopentane] + CCCC[n+]1ccc(C#N)cc1.O=S(=O)([N-]S(=O)(=O)C(F)(F)F)C(F)(F)F: the activity coefficient runs as follows: (308.15 K) 12.7 ± 1.1; (318.15 K) 11.6 ± 1; (328.15 K) 10.7 ± 0.9; (338.15 K) 9.97 ± 0.86; (348.15 K) 9.31 ± 0.8; (358.15 K) 8.69 ± 0.75. For the same compound, under “368.15 K”, the activity coefficient was determined as 8.14 ± 0.7.

As to `Cc1ccc(C)cc1` [1,4-dimethylbenzene] + CCCC[n+]1ccc(C#N)cc1.O=S(=O)([N-]S(=O)(=O)C(F)(F)F)C(F)(F)F, the activity coefficient (308.15 K) is 2.15 ± 0.19; the activity coefficient (318.15 K) amounted to 2.28 ± 0.2; the activity coefficient (328.15 K) came out at 2.4 ± 0.21; the activity coefficient (338.15 K) turned out to be 2.52 ± 0.22; the activity coefficient (348.15 K) stood at 2.65 ± 0.23; the activity coefficient (358.15 K) is 2.77 ± 0.24. Besides, the activity coefficient (368.15 K) was found to be 2.89 ± 0.25.

Consider `C1CCCCC1` [cyclohexane] + CCCC[n+]1ccc(C#N)cc1.O=S(=O)([N-]S(=O)(=O)C(F)(F)F)C(F)(F)F, for which the activity coefficient is, setting by setting: (308.15 K) 17.7 ± 1.5; (318.15 K) 16.3 ± 1.4; (328.15 K) 15.1 ± 1.3; (338.15 K) 14.2 ± 1.2; (348.15 K) 13.2 ± 1.1; (358.15 K) 12.4 ± 1.1. Where the note is “368.15 K”, the activity coefficient is 11.7 ± 1.

Turning to `CC(C)O` [propan-2-ol] + CCCC[n+]1ccc(C#N)cc1.O=S(=O)([N-]S(=O)(=O)C(F)(F)F)C(F)(F)F, the activity coefficient (308.15 K) is 2.25 ± 0.19; the activity coefficient (318.15 K) was 2.08 ± 0.18; the activity coefficient (328.15 K) was determined as 1.95 ± 0.17; the activity coefficient (338.15 K) came out at 1.83 ± 0.16; the activity coefficient (348.15 K) was determined as 1.73 ± 0.15; the activity coefficient (358.15 K) was found to be 1.63 ± 0.14.

Take `CCOC(C)(C)C` [2-ethoxy-2-methylpropane] + CCCC[n+]1ccc(C#N)cc1.O=S(=O)([N-]S(=O)(=O)C(F)(F)F)C(F)(F)F: the activity coefficient came out at 8.97 ± 0.77 (308.15 K); 8.89 ± 0.77 (318.15 K); 8.84 ± 0.76 (328.15 K); 8.8 ± 0.76 (338.15 K); 8.78 ± 0.76 (348.15 K); 8.73 ± 0.75 (358.15 K). Moreover, for the setting “368.15 K”, the activity coefficient came out at 8.68 ± 0.75.

With `CCCC(C)=O` [pentan-2-one] + CCCC[n+]1ccc(C#N)cc1.O=S(=O)([N-]S(=O)(=O)C(F)(F)F)C(F)(F)F, the activity coefficient is, setting by setting: (308.15 K) 0.697 ± 0.06; (318.15 K) 0.739 ± 0.063; (328.15 K) 0.783 ± 0.066; (338.15 K) 0.824 ± 0.069; (348.15 K) 0.868 ± 0.072; (358.15 K) 0.909 ± 0.075. The activity coefficient (368.15 K) is 0.95 ± 0.078.

As to `CC#N` [acetonitrile] + CCCC[n+]1ccc(C#N)cc1.O=S(=O)([N-]S(=O)(=O)C(F)(F)F)C(F)(F)F, the activity coefficient is 0.432 ± 0.042 (308.15 K); 0.449 ± 0.043 (318.15 K); 0.466 ± 0.044 (328.15 K); 0.483 ± 0.045 (338.15 K); 0.5 ± 0.046 (348.15 K); 0.516 ± 0.047 (358.15 K). In addition, the activity coefficient (368.15 K) came out at 0.531 ± 0.048.

As to `C=CCCCCC` [1-heptene] + CCCC[n+]1ccc(C#N)cc1.O=S(=O)([N-]S(=O)(=O)C(F)(F)F)C(F)(F)F, the activity coefficient came out at 21.3 ± 1.8 (308.15 K); 20.7 ± 1.8 (318.15 K); 20 ± 1.7 (328.15 K); 19.5 ± 1.7 (338.15 K); 19 ± 1.6 (348.15 K); 18.5 ± 1.6 (358.15 K). The activity coefficient (368.15 K) was 18.1 ± 1.6.

As to `CCCCC` [pentane] + CCCC[n+]1ccc(C#N)cc1.O=S(=O)([N-]S(=O)(=O)C(F)(F)F)C(F)(F)F, the activity coefficient (308.15 K) was determined as 26.7 ± 2.3; the activity coefficient (318.15 K) is 24.2 ± 2.1; the activity coefficient (328.15 K) worked out at 22 ± 1.9; the activity coefficient (338.15 K) turned out to be 20.2 ± 1.7; the activity coefficient (348.15 K) came out at 18.6 ± 1.6; the activity coefficient (358.15 K) came to 17.2 ± 1.5. Moreover, the activity coefficient (368.15 K) amounted to 16 ± 1.4.

Turning to `CCCC(=O)OC` [methyl butanoate] + CCCC[n+]1ccc(C#N)cc1.O=S(=O)([N-]S(=O)(=O)C(F)(F)F)C(F)(F)F, the activity coefficient (308.15 K) was found to be 1.15 ± 0.1; the activity coefficient (318.15 K) was 1.22 ± 0.1; the activity coefficient (328.15 K) worked out at 1.28 ± 0.11; the activity coefficient (338.15 K) was 1.35 ± 0.11; the activity coefficient (348.15 K) was found to be 1.42 ± 0.12; the activity coefficient (358.15 K) is 1.48 ± 0.13. Also, for the setting “368.15 K”, the activity coefficient came out at 1.55 ± 0.13.
